Assay results from ChEMBL document CHEMBL3885861, “Open TG-GATES”.

Species: Rattus norvegicus
Experiment: Open TG-GATES - Regimen: Single
Format: toxicity, organism-based, Sprague-Dawley
Design: regimen Single, gender Male, age 6 weeks
Details: in vivo, po, 100 mg/kg, route gavage, dose level Low; for APTT / Bas / Eos / Fbg / Hb / Ht / Lym / MCH / MCHC / MCV / Mono / Neu / PT / Plat / RBC / Ret / WBC: tissue Blood; for KIDNEY_L / KIDNEY_R / KIDNEY_TOTAL: tissue Kidney; for LIVER: tissue Liver; for ALP / ALT / AST / CRE / DBIL / GLC / IP / K / LDH / Na / PL / RALB / TBIL / TC / TP / gamma-GTP: tissue Plasma

Structure (SMILES): Clc1ccccc1CN1CCc2sccc2C1 [TICLOPIDINE]
- TERMINAL_BW (3 h): 210.7 g
- APTT (3 h): 19.6 s
- Bas (3 h): 0.2%
- Eos (3 h): 0.8%
- Fbg (3 h): 226.4 mg/dL
- Hb (3 h): 13.4 g/dL
- Ht (3 h): 38.3%
- Lym (3 h): 78.6%
- MCH (3 h): 21.4 pg
- MCHC (3 h): 35%
- MCV (3 h): 61.1 fL
- Mono (3 h): 2.8%
- Neu (3 h): 16.6%
- PT (3 h): 12.2 s
- Plat (3 h): 117.9 x10_4/uL
- RBC (3 h): 628 x10_4/ul
- Ret (3 h): 8.1%
- WBC (3 h): 70.6 x10_2/uL
- KIDNEY_L (3 h): 1 g
- KIDNEY_R (3 h): 1 g
- KIDNEY_TOTAL (3 h): 2 g
- LIVER (3 h): 9 g
- ALP (3 h): 1125 IU/L
- ALT (3 h): 35 IU/L
- AST (3 h): 71 IU/L
- CRE (3 h): 0.4 mg/dL
- DBIL (3 h): 0.076 mg/dL
- GLC (3 h): 200.6 mg/dL
- IP (3 h): 10.6 mg/dL
- K (3 h): 3.9 meq/L
- LDH (3 h): 155.4 IU/L
- Na (3 h): 141.4 meq/L
- PL (3 h): 132.2 mg/dL
- RALB (3 h): 3.3 g/dL
- TBIL (3 h): 0.1 mg/dL
- TC (3 h): 70.2 mg/dL
- TP (3 h): 5.5 g/dL
- gamma-GTP (3 h): 0.8 IU/L
- TERMINAL_BW (6 h): 209.6 g
- APTT (6 h): 18.1 s
- Bas (6 h): 0.4%
- Eos (6 h): 1%
- Fbg (6 h): 231.6 mg/dL
- Hb (6 h): 13.4 g/dL
- Ht (6 h): 37.9%
- Lym (6 h): 76%
- MCH (6 h): 20.8 pg
- MCHC (6 h): 35.3%
- MCV (6 h): 58.9 fL
- Mono (6 h): 2.8%
- Neu (6 h): 19.2%
- PT (6 h): 12.3 s
- Plat (6 h): 130.4 x10_4/uL
- RBC (6 h): 643.6 x10_4/ul
- Ret (6 h): 7.9%
- WBC (6 h): 75.4 x10_2/uL
- KIDNEY_L (6 h): 0.9 g
- KIDNEY_R (6 h): 0.9 g
- KIDNEY_TOTAL (6 h): 1.8 g
- LIVER (6 h): 8.7 g
- ALP (6 h): 940.2 IU/L
- ALT (6 h): 31.6 IU/L
- AST (6 h): 68.4 IU/L
- CRE (6 h): 0.4 mg/dL
- DBIL (6 h): 0.08 mg/dL
- GLC (6 h): 189 mg/dL
- IP (6 h): 10.1 mg/dL
- K (6 h): 3.9 meq/L
- LDH (6 h): 212 IU/L
- Na (6 h): 141.4 meq/L
- PL (6 h): 137.2 mg/dL
- RALB (6 h): 3.4 g/dL
- TBIL (6 h): 0.1 mg/dL
- TC (6 h): 77.8 mg/dL
- TP (6 h): 5.5 g/dL
- gamma-GTP (6 h): 0.8 IU/L
- TERMINAL_BW (9 h): 208 g
- APTT (9 h): 17.3 s
- Bas (9 h): 0.2%
- Eos (9 h): 0.6%
- Fbg (9 h): 226.6 mg/dL
- Hb (9 h): 13.3 g/dL
- Ht (9 h): 37.5%
- Lym (9 h): 74.6%
- MCH (9 h): 21.4 pg
- MCHC (9 h): 35.4%
- MCV (9 h): 60.5 fL
- Mono (9 h): 2.8%
- Neu (9 h): 20.6%
- PT (9 h): 12.7 s
- Plat (9 h): 123.9 x10_4/uL
- RBC (9 h): 621.6 x10_4/ul
- Ret (9 h): 7.5%
- WBC (9 h): 81 x10_2/uL
- KIDNEY_L (9 h): 0.9 g
- KIDNEY_R (9 h): 0.9 g
- KIDNEY_TOTAL (9 h): 1.9 g
- LIVER (9 h): 8.3 g
- ALP (9 h): 955 IU/L
- ALT (9 h): 29.6 IU/L
- AST (9 h): 69.8 IU/L
- CRE (9 h): 0.4 mg/dL
- DBIL (9 h): 0.082 mg/dL
- GLC (9 h): 199.8 mg/dL
- IP (9 h): 10 mg/dL
- K (9 h): 3.8 meq/L
- LDH (9 h): 151.2 IU/L
- Na (9 h): 142.6 meq/L
- PL (9 h): 141.6 mg/dL
- RALB (9 h): 3.4 g/dL
- TBIL (9 h): 0.1 mg/dL
- TC (9 h): 77.6 mg/dL
- TP (9 h): 5.4 g/dL
- gamma-GTP (9 h): 1.4 IU/L
- TERMINAL_BW (24 h): 219.8 g
- APTT (24 h): 21.2 s
- Bas (24 h): 1%
- Eos (24 h): 1%
- Fbg (24 h): 222 mg/dL
- Hb (24 h): 13.6 g/dL
- Ht (24 h): 38.3%
- Lym (24 h): 77.8%
- MCH (24 h): 21.7 pg
- MCHC (24 h): 35.5%
- MCV (24 h): 61.3 fL
- Mono (24 h): 2.8%
- Neu (24 h): 16.8%
- PT (24 h): 12 s
- Plat (24 h): 124.9 x10_4/uL
- RBC (24 h): 624.4 x10_4/ul
- Ret (24 h): 6.3%
- WBC (24 h): 116 x10_2/uL
- KIDNEY_L (24 h): 1 g
- KIDNEY_R (24 h): 1 g
- KIDNEY_TOTAL (24 h): 2 g
- LIVER (24 h): 10.1 g
- ALP (24 h): 1052.4 IU/L
- ALT (24 h): 37.8 IU/L
- AST (24 h): 70.2 IU/L
- CRE (24 h): 0.4 mg/dL
- DBIL (24 h): 0.072 mg/dL
- GLC (24 h): 188.6 mg/dL
- IP (24 h): 8.1 mg/dL
- K (24 h): 4.1 meq/L
- LDH (24 h): 141.4 IU/L
- Na (24 h): 141.6 meq/L
- PL (24 h): 136.4 mg/dL
- RALB (24 h): 3.4 g/dL
- TBIL (24 h): 0.1 mg/dL
- TC (24 h): 72.2 mg/dL
- TP (24 h): 5.5 g/dL
- gamma-GTP (24 h): 1 IU/L
